In patent publication EP0728482A2, “Use of hcp specific compounds to enhance erythropoiesis” (SMITHKLINE BEECHAM CORPORATION, priority 1995, dated 1996):
pIC50, pKi: −log10 of the molar value. Entries after “also recorded” stand apart in the source; their conditions may differ.

What was measured:
[1] = target: T1, human src SH2 domain (Homo sapiens, UniProt P12931); assay: ELISA-based SH2 domain / pY peptide binding assay, src SH2 domain; conditions: for pKi: Ki calculated from IC50 with the expanded equation; for pIC50: inhibition of binding of 0.1 uM biotinylated pY peptide to SH2 domain fusion protein
T1 construct: made in house; host or cells: E. coli AR120
Description: (§1) The inhibitory activity of compounds at the different human SH2 domains was determined in vitro using SH2 domains expressed as fusion proteins in E. coli. The SH2 domains used herein were the human forms of the src SH2 domain, Grb2 SH2 domain, lck SH2 domain, fyn SH2 domain, SH-PTP2 SH2 domain, p85 SH2 domain and hcp SH2 domain.
The fusion proteins containing the src, lck and hcp SH2 domains were expressed as the general sequence: DET1-DET2-spacer-ek-SH2, where DET1, DET2, spacer, ek and SH2 are as described below. DET1 ("defined epitope tag 1") (SEQ ID NO: 1) is an 11 amino acid sequence found in the Human Immunodeficiency Virus Type 1 (HIV-1) envelope protein gp120 (or gp160). Monoclonal antibodies to various epitopes of HIV-1 gp120 (or gp 160) are known in the art, see, for example U.S. Patent 5,166,050. One preferred example is monoclonal antibody 178.1 (see, e.g., Thiriart et al., J. Immunol., 143:1832-1836 (1989)), which was prepared by immunization of mice with a yeast-expressed HIV-1 gp160 molecule from strain BH10 (Ratner et al., Nature, 313:277-284 (1985)). This tag was used for detection of expression (by Western blot), for purification of the protein (by affinity chromatography), and for configuring assays in which the fusion protein was captured or immobilized using the 178.1 antibody. DET2 is a hexa-histidine sequence tag (SEQ ID NO: 2) which binds to nickel-containing resins and was used for purification purposes. Spacer (SEQ ID NO: 3) was utilized to design a BamH1 restriction site at the indicated position of the construct. The term -ek-refers to a recognition sequence (SEQ ID NO: 4) for the enterokinase protease which provides for the optional removal of the tags from the SH2 domain, thus producing an SH2 domain that contains no extraneous amino acids. SH2 domains which contain no extraneous amino acids are preferable to tagged protein for crystallography studies. SH2 refers to the SH2 domains of different proteins.
Procedure 2: Cloning, expression and purification of human src SH2 domain containing tags and an enterokinase proteolytic cleavage site (DET1-DET2-spacer-ek-src SH2).
A DNA sequence encoding protein ek-src SH2 was PCR amplified from a cDNA clone containing the human src gene (c-src SH2 DNA sequence identical to that described in Takeya,T. and Hanafusa, H, 1983 Cell 32:881-890) using the following primers: [formula]
The PCR product was digested with BamHI and XbaI, followed by isolation of the digested fragment on an agarose gel. The fragment was ligated into BamHI-XbaI-digested expression vector containing the tagged chicken src gene DET1-DET2-spacer-SH2 described in Procedure 1 above. In that vector, the BamHI site is located between the coding regions for DET2 and SH2, and the XbaI site is located after the 3' end of the SH2 coding region. The ligation reaction was used to transform E. coli MM294cI^+. The construct DET1-DET2-spacer-ek-src SH2 was confirmed by DNA sequencing (SEQ ID NO: 5) and induced in E. coli strain AR120 as described in Procedure 1 above. A Coomassie-Blue-stained, Western-blot-positive induced protein band with an apparent molecular weight of 16,000 was observed after nalidixic acid induction.
Cells were lysed at neutral pH by sonication in the presance of lysozyme. After centrifugation, the soluble extract was chromatographed on a Ni^++NTA column. After washing the column with equilibration buffer (Tris buffer pH 8 containing 0.5 M Nacl) and the same buffer containing 15 mM imidazole, the protein was eluted in highly purified form with 25 mM imidazole in equilibration buffer.
The binding assays for the SH2 domains and pY peptides were performed in an ELISA-based 96 well plate assay. […]

[2] = system: B6D2F1 female mice; assay: murine reticulocyte assay (Hayakawa assay); assay type: in vivo; conditions: oral gavage, once a day for 7 days
Description: The efficacy of hcp SH2 domain antagonist to enhance erythropoiesis is related to their ability to increase reticulocyte production in the murine reticulocyte assay (Hayakawa T, et al. Biologicals 20; 253 (1992) and Hayakawa T, et al. Biologicals 20; 243 (1992), (collectively hereinafter 'Hayakawa')).
L-3,5-Dibromo-3'-(6-oxo-3(1H)-pyridazinylmethyl)-thyronine (Compound 2) was tested for its in vivo potency to increase reticulocyte production in the Hayakawa assay.
To perform the experiment a total of 12 B6D2F1 female mice were used. The animals were administered Compound 2 (the compound was dissolved in water, pH 11, and administered by oral gavage) once a day for 7 days. At the end of the treatment period blood was collected from the animals and reticulocyte count was determined by known methods. (Hayakawa)

[3] = system: human hcp SH2 domain; assay: ELISA-based SH2 domain / pY peptide binding assay, hcp SH2 domain; conditions: hcp SH2 domain versus src, lck, fyn, SH-PTP2, p85, Grb2 SH2 domains
Description: as §1
The fusion proteins containing the src, lck and hcp SH2 domains were expressed as the general sequence: DET1-DET2-spacer-ek-SH2, where DET1, DET2, spacer, ek and SH2 are as described below. DET1 ("defined epitope tag 1") (SEQ ID NO: 1) is an 11 amino acid sequence found in the Human Immunodeficiency Virus Type 1 (HIV-1) envelope protein gp120 (or gp160). Monoclonal antibodies to various epitopes of HIV-1 gp120 (or gp 160) are known in the art, see, for example U.S. Patent 5,166,050. One preferred example is monoclonal antibody 178.1 (see, e.g., Thiriart et al., J. Immunol., 143:1832-1836 (1989)), which was prepared by immunization of mice with a yeast-expressed HIV-1 gp160 molecule from strain BH10 (Ratner et al., Nature, 313:277-284 (1985)). This tag was used for detection of expression (by Western blot), for purification of the protein (by affinity chromatography), and for configuring assays in which the fusion protein was captured or immobilized using the 178.1 antibody. […]

Compound | pKi [1] | pIC50 [1] | Reticulocytes ([2]; 200 mg/kg/day) | Reticulocytes ([2]; 400 mg/kg/day) | Reticulocytes ([2]; 800 mg/kg/day) | binding affinities/inhibitory concentrations at the hcp SH2 domain than at other SH2 domains [3]
4-acetamido-benzamido-trans-4-methyl-cyclohexyl-N-1-(amino-R-2-(methoxy methyl)-pyrrolidine) carboxamide [Compound 8] | 4.92 | 4.80 | – | – | – | –
N[C@@H](Cc1cc(Br)c(Oc2ccc(O)c(Cc3ccc(=O)[nH]n3)c2)c(Br)c1)C(=O)O [Compound 2, L-3,5-Dibromo-3'-(6-oxo-3(1H)-pyridazinylmethyl)-thyronine] | – | – | 321.0 ± 46.3 10^9/L | 310.8 ± 24.8 10^9/L | 375.2 ± 51.6 10^9/L | –
Cc1nc2sc3c(c2c2[nH][nH]c(=O)c12)CCC1(C3)OCCO1 [Compound 3, 8,8-Ethylenedioxy-2,3,7,8,9,10-hexahydro-4-methyl-1H-benzo[b]thieno[2,3-b]pyrazolo[3,4-d]pyridin-3-one] | 5.22 | 4.79 | – | – | – | –
Cc1nc2sc3c(c2c2c1c(=O)[nH]n2C)CCC1(C3)OCCO1 [Compound 5, 1,4-Dimethyl-8,8-ethylenedioxy-2,3,7,8,9,10-hexahydro-1H-benzo[b]thieno[2,3-b]pyrazolo[3,4-d]pyridin-3-one] | 4.55 | 4.20 | – | – | – | greater than fifty-fold higher; also recorded: greater than one hundred-fold higher

Second part, led by results:

pKi [1] | pIC50 [1] | Compound | Reticulocytes ([2]; 200 mg/kg/day) | Reticulocytes ([2]; 400 mg/kg/day) | Reticulocytes ([2]; 800 mg/kg/day) | binding affinities/inhibitory concentrations at the hcp SH2 domain than at other SH2 domains [3]
5.15 | 5.22 | Cc1nnc(SCC2=C(C(=O)O)N3C(=O)[C@@H](NC(=O)C(N)c4ccc(C(=O)O)cc4)[C@H]3SC2)s1 (stereo partly drawn) [Compound 1, 7-[D,L-α-Amino-α-(4-carboxyphenyl)acetamido]-3-[2-(5-methyl-1,3,4-thiadiazolyl)thiomethyl]Δ^3-cephem-4-carboxylic Acid] | – | – | – | –
4.40 | 4.40 | Cc1ccc(C(=O)c2ccc(C(=O)c3ccc(CC=O)cc3)cc2)cc1 [Compound 4, 4-[4-(4-Methylbenzoyl)benzoyl]phenylacetaldehyde] | – | – | – | –
4.26 | 3.88 | CCCNC(=O)[C@H]1CC[C@H](CNC(=O)/C=C/c2ccc(C=O)cc2)CC1 [Compound 9, 4-formyl-E-cinnamido-trans-4-methyl-cyclohexyl-N-(propyl) carboxamide] | – | – | – | –
